Each structure is given as a SMILES string. Values joined by “and” are separate entries in the source; they are usually repeats but may differ in a detail not shown here. Identical values can stand only once. Like-named read-outs stand apart in the source and are kept apart here. Some results are limits rather than exact numbers.

The values that follow come from paper PMC6401477, “Quorum Sensing Signal Selectivity and the Potential for Interspecies Cross Talk” (mBio, 2019).

Holding throughout (experiment): cell-based
Assay [1] concerns the target T1, QscR (Pseudomonas aeruginosa, UniProt G3XD77).
T1 construct: expressed in transfected cells; host or cells: E. coli 5α (DH5α) with pJNQ and pPROBE-PPA1897
T1 sequence (G3XD77 1-237): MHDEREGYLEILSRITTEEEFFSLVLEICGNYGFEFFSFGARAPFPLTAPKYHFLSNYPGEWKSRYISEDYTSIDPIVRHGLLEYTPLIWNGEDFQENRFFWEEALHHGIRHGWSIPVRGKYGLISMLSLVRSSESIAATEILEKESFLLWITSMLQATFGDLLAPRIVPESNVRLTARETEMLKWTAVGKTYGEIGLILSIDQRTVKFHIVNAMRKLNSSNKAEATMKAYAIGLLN
The following applies: P. aeruginosa PAO-SC4 (pPROBE-PPA1897); read-out: EC50 QscR in native host.

Assay [2] concerns the target T2, LuxR (Aliivibrio fischeri, UniProt P12746).
T2 construct: endogenous in cells; host or cells: V. fischeri MJ215
T2 sequence (P12746 1-250): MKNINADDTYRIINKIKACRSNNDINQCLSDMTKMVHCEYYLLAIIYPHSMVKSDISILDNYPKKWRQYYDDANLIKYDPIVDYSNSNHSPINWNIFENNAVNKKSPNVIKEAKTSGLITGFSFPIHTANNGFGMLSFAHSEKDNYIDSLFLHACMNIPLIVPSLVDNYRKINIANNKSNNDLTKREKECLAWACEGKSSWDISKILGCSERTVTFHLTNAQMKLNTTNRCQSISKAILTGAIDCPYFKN
The settings on record: V. fischeri MJ215, luminescence; read-out: EC50 LuxR in native host.

Assay [3] concerns the target T3, BtaR2 (Burkholderia thailandensis, UniProt Q2T5X2).
T3 sequence (Q2T5X2 1-234): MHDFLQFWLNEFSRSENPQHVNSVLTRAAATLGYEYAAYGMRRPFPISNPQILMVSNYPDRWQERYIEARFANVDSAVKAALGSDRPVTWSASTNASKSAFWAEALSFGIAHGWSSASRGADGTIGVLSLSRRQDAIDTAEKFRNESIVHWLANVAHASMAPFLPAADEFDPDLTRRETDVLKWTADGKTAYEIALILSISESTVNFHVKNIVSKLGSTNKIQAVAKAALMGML
More on the design: species or system B. thailandensis.

The target of assay [4] is T4, BtaR1 (Burkholderia thailandensis, UniProt Q2T543).
T4 sequence (Q2T543 1-239): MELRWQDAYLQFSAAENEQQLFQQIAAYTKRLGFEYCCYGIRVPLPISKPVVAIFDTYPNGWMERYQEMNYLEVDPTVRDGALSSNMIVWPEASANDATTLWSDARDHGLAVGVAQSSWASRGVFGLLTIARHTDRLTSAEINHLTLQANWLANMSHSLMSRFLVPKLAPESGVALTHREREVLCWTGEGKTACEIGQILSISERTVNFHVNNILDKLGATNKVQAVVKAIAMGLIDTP
Also noted: species or system B. thailandensis.

Assay [5] concerns the target T5, CviR (Chromobacterium violaceum, UniProt D3W065).
T5 construct: Violacein was used as a measure of CviR activity in C. violaceum (CV026); endogenous in cells; host or cells: C. violaceum CV026
The settings on record: C. violaceum CV026, violacein; read-out: EC50 CviR in native host.

The target in assay [6] is T4, BtaR1. More on the design: species or system B. thailandensis. The source holds these as a separate data set.
In assay [7] the target is T6, LasR (Pseudomonas aeruginosa, UniProt P25084).
T6 construct: expressed in transfected cells; host or cells: E. coli 5α (DH5α) with pJNL and pPROBE-PrsaL
T6 sequence (P25084 1-239): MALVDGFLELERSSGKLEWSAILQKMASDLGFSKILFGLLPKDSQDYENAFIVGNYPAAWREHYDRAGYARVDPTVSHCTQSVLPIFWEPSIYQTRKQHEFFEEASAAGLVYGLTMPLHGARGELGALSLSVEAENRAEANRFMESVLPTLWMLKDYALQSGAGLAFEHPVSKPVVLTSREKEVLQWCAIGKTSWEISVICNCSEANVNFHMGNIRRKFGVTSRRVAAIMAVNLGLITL
Also noted: species or system P. aeruginosa. The settings on record: receptor expressed in E. coli (DH5α), arabinose-induced.

Assay [8] deals with T6, LasR. The settings on record: P. aeruginosa PAO-SC4 (pPROBE-PrsaL); mean ± SEM, n ≥ 3; read-out: EC50 LasR in native host.
Assay [9] addresses T7, RhlR (Pseudomonas aeruginosa, UniProt P54292).
T7 sequence (P54292 1-241): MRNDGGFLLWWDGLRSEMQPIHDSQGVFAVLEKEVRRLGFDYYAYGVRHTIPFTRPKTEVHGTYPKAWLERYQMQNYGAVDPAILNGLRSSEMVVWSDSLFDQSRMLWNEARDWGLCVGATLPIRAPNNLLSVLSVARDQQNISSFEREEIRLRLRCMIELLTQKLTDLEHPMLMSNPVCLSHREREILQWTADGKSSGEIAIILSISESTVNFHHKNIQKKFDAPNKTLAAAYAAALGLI
The assay is classed as cell-based, P. aeruginosa. The settings on record: for EC50: receptor expressed in E. coli (DH5α), arabinose-induced.

Assay [10] has as its target T1, QscR. More on the design: species or system P. aeruginosa. The settings on record: receptor expressed in E. coli (DH5α), arabinose-induced.
Assay [11] deals with T3, BtaR2. Also noted: species or system B. thailandensis. The source holds these as a separate data set.

As for `CCCC(=O)CC(=O)N[C@H]1CCOC1=O` [3OC6-HSL], the EC50 was more than 100 µM in assay [1]; 0.272 µM and 0.27 µM in assay [2]; more than 100 µM in [3]; more than 100 µM in assay [4]; 0.98 ± 0.26 µM in assay [5]; more than 100 µM in assay [6].
On to `CCCCCC(=O)CC(=O)N[C@H]1CCOC1=O` [3OC8-HSL], for which the EC50 in assay [2] was determined as 0.49 ± 0.11 µM; in [7] it was 17.4 ± 6.5 µM; in assay [5], 5.47 ± 0.27 µM; in assay [8], 59.1 ± 7.5 µM; in assay [6], 1.1 ± 0.29 µM.
Take `CCCCCCCC(=O)CC(=O)N[C@H]1CCOC1=O` [3OC10-HSL]: the EC50 in [2] was 4 ± 0.51 µM; in assay [7], 0.21 ± 0.06 µM; in [9], more than 100 µM; in assay [5], more than 100 µM; in assay [6], 2.83 ± 1.61 µM; in [10], 0.26 ± 0.16 µM.
As for `CCCCCCCCCC(=O)CC(=O)N[C@H]1CCOC1=O` [3OC12-HSL, N-3-oxo-dodecanoyl-L-homoserine lactone], the figures for the EC50 in assay [2], in assay [9] and in [5] were 7.1 ± 2 µM, more than 100 µM and more than 100 µM, respectively. In addition, the “effect on RhlR activity in E. coli” value in assay [9] (AHL 100 µM (Fig. S3)) is given as “does not affect”.
Regarding `CCCCCCCCCCCC(=O)CC(=O)N[C@H]1CCOC1=O` [3OC14-HSL, N-3-oxotetradecanoyl-L-homoserine lactone], the EC50 was more than 100 µM in assay [2]; 0.0125 ± 0.0045 µM in assay [7]; more than 100 µM in [9]; more than 100 µM in [4]; more than 100 µM in [5]; 2.35 ± 0.66 µM in assay [8]. In addition, the EC50 in assay [6] came out at 1.26 ± 0.25 µM.
On to `CCCCCCCCCCCCCC(=O)CC(=O)N[C@H]1CCOC1=O` [3OC16-HSL], for which the EC50 in assay [1] was more than 100 µM; in assay [2], more than 100 µM; in assay [7], 0.13 ± 0.03 µM; in [9], more than 100 µM; in [4], more than 100 µM; in [5] it was more than 100 µM. Besides, the results for the EC50 in assay [8], in [6] and in assay [10] were 7.05 ± 1.88 µM, 1.37 ± 0.27 µM and 0.17 ± 0.07 µM, respectively.
With `CC(O)CC(=O)N[C@H]1CCOC1=O` (stereo partly drawn) [3OHC4-HSL], the EC50 in assay [1] was more than 100 µM; in assay [2], more than 100 µM; in assay [7], more than 100 µM; in [9], more than 100 µM; in assay [3], 25 ± 2.6 µM; in assay [4] it was more than 100 µM. Moreover, the EC50 in assay [5], in [8] and in [10] was more than 100 µM throughout.
As to `CCCC(O)CC(=O)N[C@H]1CCOC1=O` (stereo partly drawn) [3OHC6-HSL], the concentration for a half-maximal effect (EC50) in [1], in [7], in assay [9], in assay [4], in assay [8] and in [6] was more than 100 µM each time. Besides, the concentration for a half-maximal effect (EC50) in assay [10] was more than 100 µM.
Regarding `CCCCCC(O)CC(=O)N[C@H]1CCOC1=O` (stereo partly drawn) [3OHC8-HSL, N-3-hydroxyoctanoyl-L-homoserine lactone], the EC50 in assay [1] was more than 100 µM; in [2], more than 100 µM; in assay [9], more than 100 µM; in assay [5], 21.2 ± 6.6 µM; in assay [8] it was more than 100 µM; in assay [10], 5.82 ± 1.49 µM.
In the case of `CCCCCCCC(O)CC(=O)N[C@H]1CCOC1=O` (stereo partly drawn) [3OHC10-HSL], the EC50 in [2] was more than 100 µM; in assay [7], 7.91 ± 0.45 µM; in assay [9], more than 100 µM; in assay [6] it was 1.82 ± 0.07 µM; in assay [10] it was 0.0299 ± 0.0134 µM.
In the case of `CCCCCCCCCC(O)CC(=O)N[C@H]1CCOC1=O` (stereo partly drawn) [3OHC12-HSL], the EC50 in assay [1] is 23.9 ± 9.2 µM; in assay [2], more than 100 µM; in assay [7] it was 1.23 ± 0.86 µM; in assay [9], more than 100 µM; in assay [3], 0.0915 ± 0.0252 µM; in assay [5] it was more than 100 µM. In addition, the EC50 was determined as 48.4 ± 13.2 µM in [8] and 0.11 ± 0.05 µM in assay [10].
With `CCCCCCCCCCCC(O)CC(=O)N[C@H]1CCOC1=O` (stereo partly drawn) [3OHC14-HSL], the 50% effective concentration (EC50) was more than 100 µM in assay [2]; 0.2 ± 0.02 µM in [7]; more than 100 µM in assay [9]; more than 100 µM in [4]; more than 100 µM in assay [5]; 2.66 ± 0.68 µM in assay [8]. Moreover, the EC50 in [6] is 2.23 ± 0.73 µM; in [10], 0.15 ± 0.04 µM.
As for `CCCCCC(=O)N[C@H]1CCOC1=O` [C6-HSL], the concentration for a half-maximal effect (EC50) in assay [1] was more than 100 µM; in [7], more than 100 µM; in [9], 134 ± 26 µM; in [3], more than 100 µM; in assay [5], 0.0834 ± 0.0245 µM; in assay [8], more than 100 µM.
Take `CCCCCCCC(=O)N[C@H]1CCOC1=O` [C8-HSL]: the EC50 was more than 100 µM in assay [1]; 13.9 ± 2.1 µM in assay [11]; 1.66 ± 0.92 µM in assay [5]; more than 100 µM in assay [8]; 1.9 ± 0.27 µM in [10].
Regarding `CCCCCCCCCC(=O)N[C@H]1CCOC1=O` [C10-HSL, N-decanoyl-L-homoserine lactone], the EC50 in assay [2] is 42 ± 7.6 µM; in [7], 8.67 ± 1.49 µM; in assay [9], more than 100 µM; in assay [5], more than 100 µM.
Turning to `CCCCCCCCCCCC(=O)N[C@H]1CCOC1=O` [C12-HSL], the EC50 in assay [2] is more than 100 µM; in assay [7] it was 0.66 ± 0.07 µM; in assay [9], more than 100 µM; in assay [5] it was more than 100 µM.
Consider `CCCCCCCCCCCCCC(=O)N[C@H]1CCOC1=O` [C14-HSL], for which the EC50 in assay [1] was more than 100 µM; in [2], more than 100 µM; in [7], 0.36 ± 0.13 µM; in assay [9] it was more than 100 µM; in [5], more than 100 µM; in assay [6] it was 0.97 ± 0.35 µM. In addition, the EC50 in [10] was 0.0896 ± 0.0201 µM.
In the case of `CCCCCCCCCCCCCCCC(=O)N[C@H]1CCOC1=O` [C16-HSL], the concentration giving a half-maximal response (EC50) in assay [1], in assay [2], in [9], in assay [3], in assay [11] and in assay [5] was more than 100 µM each time. Further, the EC50 in assay [8] and in [10] was more than 100 µM each time.

As a reminder, the EC50 is the concentration at which the effect is half-maximal.
